From patent US11370798B2 (Vertex Pharmaceuticals Incorporated, priority 2012, dated 2022)

Tested on: HCT116 colorectal cancer cells
Assay: Cisplatin sensitization assay (96 h cell viability MTS);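 note: Test-compound concentration that lowers the Cisplatin IC50 by a set fold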
Assay type: cell-based
Conditions: compound and Cisplatin added simultaneously, Cisplatin sensitization value
Outline: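 Viability read by MTS (1 h at 37° C) after 96 h co-exposure at 37° C, 5% CO2. Test compound and cisplatin were dosed simultaneously in a full concentration matrix, each 2-fold serially diluted from 10 μM final; sensitization values binned in μM.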

Row | Structure (SMILES) | Cisplatin Sensitization Assay
1 | N#CC1CN(C(=O)C2CCN(c3c(F)cncc3NC(=O)c3c(N)nn4cc(F)cnc34)CC2)C1 [I-G-76, 2-amino-N-(4-(4-(3-cyanoazetidine-1-carbonyl)piperidin-1-yl)-5-fluoropyridin-3-yl)-6-fluoropyrazolo[1,5-a]pyrimidine-3-carboxamide] | +++ (Cisplatin sensitization value of <0.02 μM)
2 | Nc1nn2cc(F)cnc2c1C(=O)Nc1cnccc1N1CCC(C(=O)N2CCC2)CC1 [I-G-77, 2-amino-N-(4-(4-(azetidine-1-carbonyl)piperidin-1-yl)pyridin-3-yl)-6-fluoropyrazolo[1,5-a]pyrimidine-3-carboxamide] | +++ (Cisplatin sensitization value of <0.02 μM)
3 | COC1CN(C(=O)C2CCN(c3ccncc3NC(=O)c3c(N)nn4cc(F)cnc34)CC2)C1 [I-G-78, 2-amino-6-fluoro-N-(4-(4-(3-methoxyazetidine-1-carbonyl)piperidin-1-yl)pyridin-3-yl)pyrazolo[1,5-a]pyrimidine-3-carboxamide] | +++ (Cisplatin sensitization value of <0.02 μM)
4 | COC1(C)CN(C(=O)C2CCN(c3ccncc3NC(=O)c3c(N)nn4cc(F)cnc34)CC2)C1 [I-G-79, 2-amino-6-fluoro-N-(4-(4-(3-methoxy-3-methylazetidine-1-carbonyl)piperidin-1-yl)pyridin-3-yl)pyrazolo[1,5-a]pyrimidine-3-carboxamide] | +++ (Cisplatin sensitization value of <0.02 μM)
5 | Nc1nn2cc(F)cnc2c1C(=O)Nc1cnccc1N1CCC(C(=O)N2CC(F)(F)C2)CC1 [I-G-80, 2-amino-N-(4-(4-(3,3-difluoroazetidine-1-carbonyl)piperidin-1-yl)pyridin-3-yl)-6-fluoropyrazolo[1,5-a]pyrimidine-3-carboxamide] | +++ (Cisplatin sensitization value of <0.02 μM)
6 | N#CC1CN(C(=O)C2CCN(c3ccncc3NC(=O)c3c(N)nn4cc(F)cnc34)CC2)C1 [I-G-81, 2-amino-N-(4-(4-(3-cyanoazetidine-1-carbonyl)piperidin-1-yl)pyridin-3-yl)-6-fluoropyrazolo[1,5-a]pyrimidine-3-carboxamide] | +++ (Cisplatin sensitization value of <0.02 μM)
7 | Nc1nn2cc(F)cnc2c1C(=O)Nc1cnccc1N1CCC(C(=O)N2CC(F)C2)CC1 [I-G-82, 2-amino-6-fluoro-N-(4-(4-(3-fluoroazetidine-1-carbonyl)piperidin-1-yl)pyridin-3-yl)pyrazolo[1,5-a]pyrimidine-3-carboxamide] | +++ (Cisplatin sensitization value of <0.02 μM)
8 | Nc1nn2cc(F)cnc2c1C(=O)Nc1cnccc1N1CCC(C(=O)N2CCCC2)CC1 [I-G-83, 2-amino-6-fluoro-N-(4-(4-(pyrrolidine-1-carbonyl)piperidin-1-yl)pyridin-3-yl)pyrazolo[1,5-a]pyrimidine-3-carboxamide] | +++ (Cisplatin sensitization value of <0.02 μM)
9 | Nc1nn2cc(F)cnc2c1C(=O)Nc1cnccc1N1CCC(C(=O)N2CCC3(COC3)C2)CC1 [I-G-84, N-(4-(4-(2-oxa-6-azaspiro[3.4]octane-6-carbonyl)piperidin-1-yl)pyridin-3-yl)-2-amino-6-fluoropyrazolo[1,5-a]pyrimidine-3-carboxamide] | +++ (Cisplatin sensitization value of <0.02 μM)
10 | Nc1nn2cc(F)cnc2c1C(=O)Nc1cnccc1N1CCC(C(=O)N2CCOCC2)CC1 [I-G-85, 2-amino-6-fluoro-N-(4-(4-(morpholine-4-carbonyl)piperidin-1-yl)pyridin-3-yl)pyrazolo[1,5-a]pyrimidine-3-carboxamide] | +++ (Cisplatin sensitization value of <0.02 μM)
11 | CS(=O)(=O)C1CN(C(=O)C2CCN(c3c(F)cncc3NC(=O)c3c(N)nn4cc(F)cnc34)CC2)C1 [I-G-86, 2-amino-6-fluoro-N-(5-fluoro-4-(4-(3-(methylsulfonyl)azetidine-1-carbonyl)piperidin-1-yl)pyridin-3-yl)pyrazolo[1,5-a]pyrimidine-3-carboxamide] | +++ (Cisplatin sensitization value of <0.02 μM)
12 | Nc1nn2cc(Cl)cnc2c1C(=O)Nc1cncc(F)c1N1CCC(C(=O)N2CCN3CCC2CC3)CC1 [I-G-87, N-(4-(4-(1,4-diazabicyclo[3.2.2]nonane-4-carbonyl)piperidin-1-yl)-5-fluoropyridin-3-yl)-2-amino-6-chloropyrazolo[1,5-a]pyrimidine-3-carboxamide] | +++ (Cisplatin sensitization value of <0.02 μM)
13 | Nc1nn2cc(F)cnc2c1C(=O)Nc1cnccc1N1CCC(C(=O)N2CC3(COC3)C2)CC1 [I-G-88, N-(4-(4-(2-oxa-6-azaspiro[3.3]heptane-6-carbonyl)piperidin-1-yl)pyridin-3-yl)-2-amino-6-fluoropyrazolo[1,5-a]pyrimidine-3-carboxamide] | +++ (Cisplatin sensitization value of <0.02 μM)
14 | CS(=O)(=O)C1CN(C(=O)C2CCN(c3ccncc3NC(=O)c3c(N)nn4cc(F)cnc34)CC2)C1 [I-G-89, 2-amino-6-fluoro-N-(4-(4-(3-(methylsulfonyl)azetidine-1-carbonyl)piperidin-1-yl)pyridin-3-yl)pyrazolo[1,5-a]pyrimidine-3-carboxamide] | + (Cisplatin sensitization value>0.2 μM but <5 μM)
15 | Nc1nn2cc(F)cnc2c1C(=O)Nc1cnccc1N1CCC(C(=O)N2CC3(CCO3)C2)CC1 [I-G-90, N-(4-(4-(1-oxa-6-azaspiro[3.3]heptane-6-carbonyl)piperidin-1-yl)pyridin-3-yl)-2-amino-6-fluoropyrazolo[1,5-a]pyrimidine-3-carboxamide] | +++ (Cisplatin sensitization value of <0.02 μM)
16 | CCOC1CN(C(=O)C2CCN(c3ccncc3NC(=O)c3c(N)nn4cc(F)cnc34)CC2)C1 [I-G-91, 2-amino-N-(4-(4-(3-ethoxyazetidine-1-carbonyl)piperidin-1-yl)pyridin-3-yl)-6-fluoropyrazolo[1,5-a]pyrimidine-3-carboxamide] | +++ (Cisplatin sensitization value of <0.02 μM)
17 | CC1(N2CCN(C(=O)C3CCN(c4c(F)cncc4NC(=O)c4c(N)nn5cc(F)cnc45)CC3)CC2)COC1 [I-G-92, 2-amino-6-fluoro-N-(5-fluoro-4-(4-(4-(3-methyloxetan-3-yl)piperazine-1-carbonyl)piperidin-1-yl)pyridin-3-yl)pyrazolo[1,5-a]pyrimidine-3-carboxamide] | +++ (Cisplatin sensitization value of <0.02 μM)
18 | CO[C@@H]1CCN(C(=O)C2CCN(c3ccncc3NC(=O)c3c(N)nn4cc(F)cnc34)CC2)C1 [I-G-93, (R)-2-amino-6-fluoro-N-(4-(4-(3-methoxypyrrolidine-1-carbonyl)piperidin-1-yl)pyridin-3-yl)pyrazolo[1,5-a]pyrimidine-3-carboxamide] | +++ (Cisplatin sensitization value of <0.02 μM)
19 | CO[C@H]1CCN(C(=O)C2CCN(c3ccncc3NC(=O)c3c(N)nn4cc(F)cnc34)CC2)C1 [I-G-94, (S)-2-amino-6-fluoro-N-(4-(4-(3-methoxypyrrolidine-1-carbonyl)piperidin-1-yl)pyridin-3-yl)pyrazolo[1,5-a]pyrimidine-3-carboxamide] | +++ (Cisplatin sensitization value of <0.02 μM)
20 | C[N+]1([O-])CCN(C(=O)C2CCN(c3c(F)cncc3NC(=O)c3c(N)nn4cc(F)cnc34)CC2)CC1 [I-G-95, 4-(1-(3-(2-amino-6-fluoropyrazolo[1,5-a]pyrimidine-3-carboxamido)-5-fluoropyridin-4-yl)piperidine-4-carbonyl)-1-methylpiperazine 1-oxide] | +++ (Cisplatin sensitization value of <0.02 μM)
21 | CN1CC(N2CCN(C(=O)C3CCN(c4c(F)cncc4NC(=O)c4c(N)nn5cc(F)cnc45)CC3)CC2)C1 [I-G-96, 2-amino-6-fluoro-N-(5-fluoro-4-(4-(4-(1-methylazetidin-3-yl)piperazine-1-carbonyl)piperidin-1-yl)pyridin-3-yl)pyrazolo[1,5-a]pyrimidine-3-carboxamide] | +++ (Cisplatin sensitization value of <0.02 μM)
22 | COCC1CN(C(=O)C2CCN(c3c(F)cncc3NC(=O)c3c(N)nn4cc(F)cnc34)CC2)C1 [I-G-98, 2-amino-6-fluoro-N-(5-fluoro-4-(4-(3-(methoxymethyl)azetidine-1-carbonyl)piperidin-1-yl)pyridin-3-yl)pyrazolo[1,5-a]pyrimidine-3-carboxamide] | +++ (Cisplatin sensitization value of <0.02 μM)
23 | CO[C@H]1CCN(C(=O)C2CCN(c3c(F)cncc3NC(=O)c3c(N)nn4cc(F)cnc34)CC2)C1 [I-G-99, (S)-2-amino-6-fluoro-N-(5-fluoro-4-(4-(3-methoxypyrrolidine-1-carbonyl)piperidin-1-yl)pyridin-3-yl)pyrazolo[1,5-a]pyrimidine-3-carboxamide] | +++ (Cisplatin sensitization value of <0.02 μM)
24 | Nc1nn2cc(F)cnc2c1C(=O)Nc1cnccc1N1CCN(C2COC2)CC1 [I-N-1, 2-amino-6-fluoro-N-(4-(4-(oxetan-3-yl)piperazin-1-yl)pyridin-3-yl)pyrazolo[1,5-a]pyrimidine-3-carboxamide] | ++ (Cisplatin sensitization value>0.02 μM but <0.2 μM)
25 | N#CCc1cnc2c(C(=O)Nc3cnccc3N3CCC(N)CC3)c(N)nn2c1 [I-N-2, 2-amino-N-(4-(4-aminopiperidin-1-yl)pyridin-3-yl)-6-(cyanomethyl)pyrazolo[1,5-a]pyrimidine-3-carboxamide] | +++ (Cisplatin sensitization value of <0.02 μM)
26 | CN1CCN(c2ccncc2NC(=O)c2c(N)nn3cc(F)cnc23)CC1 [I-N-3, 2-amino-6-fluoro-N-(4-(4-methylpiperazin-1-yl)pyridin-3-yl)pyrazolo[1,5-a]pyrimidine-3-carboxamide] | +++ (Cisplatin sensitization value of <0.02 μM)
27 | CC(C)N1CCN(c2ccncc2NC(=O)c2c(N)nn3cc(F)cnc23)CC1 [I-N-4, 2-amino-6-fluoro-N-(4-(4-isopropylpiperazin-1-yl)pyridin-3-yl)pyrazolo[1,5-a]pyrimidine-3-carboxamide] | +++ (Cisplatin sensitization value of <0.02 μM)
